Paper PMC9616531 (Plant Biotechnology Journal, 2022)

System: UGT72B23
Experiment: UDP-Glo glycosyltransferase assay
Format: biochemical, Camellia sinensis
Conditions: read-out: apparent Km; UDP-glucose co-substrate, pH 7.5, 40 °C

| Km | Compound |
| --- | --- |
| 31.2 µM | O=C(O[C@@H]1Cc2c(O)cc(O)cc2O[C@@H]1c1ccc(O)c(O)c1)c1cc(O)c(O)c(O)c1 [epicatechin gallate] |
| 27.9 µM | O=C(O[C@@H]1Cc2c(O)cc(O)cc2O[C@@H]1c1cc(O)c(O)c(O)c1)c1cc(O)c(O)c(O)c1 [epigallocatechin gallate] |
